Assay results from US20230104936A1, “TRPML MODULATORS” (Casma Therapeutics, Inc., priority 2019, published 2023).

Test system: TFEB
Assay: TFEB nuclear translocation assay, HeLa wt cells
Format: cell-based
Details: 2 hrs compound treatment, Table 1 does not say HeLa wt or TRPML1 KO
Method in brief: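 HeLa wt or TRPML1 KO cells treated 2 hrs with compounds at 37° C, fixed in 4% PFA, immunostained with anti-TFEB plus Alexa 488 secondary and Hoechst. Imaged at ×20, four fields/well; read-out is nuclear/perinuclear-ring TFEB intensity ratio, reported as AC50.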

SMILES | AC50 [nM] | AC50 (Homo sapiens, HeLa, 2 h) [nM]
Cc1ccc(S(=O)(=O)C(C)c2cccc(F)c2N2CCC(CN3C4CCC3COC4)CC2)cc1 (single isomer, unassigned) [Compound A-965, 8-((1-(2-fluoro-6-(1-tosylethyl)phenyl)piperidin-4-yl)methyl)-3-oxa-8-azabicyclo[3.2.1]octane] | ≥ 10000 | 
O=S(=O)(Nc1ccccc1N1CCC(c2ccc(F)cc2F)CC1)c1ccc(S(=O)(=O)C(F)F)cc1 [Compound A-185, 4-difluoromethanesulfonyl-N-{2-[4-(2,4-difluorophenyl)piperidin-1-yl]phenyl}benzene-1-sulfonamide] |  | ≤ 2000
COCC1(C)CCN(c2ccccc2NS(=O)(=O)c2ccc(OC)cc2)CC1 [Compound A-538, 4-methoxy-N-{2-[4-(methoxymethyl)-4-methylpiperidin-1-yl]phenyl}benzene-1-sulfonamide] |  | ≤ 2000
COCC1(C)CCN(c2ccccc2NS(=O)(=O)c2ccc3c(c2)COC3(C)C)CC1 [Compound A-682, N-{2-[4-(methoxymethyl)-4-methylpiperidin-1-yl]phenyl}-1,1-dimethyl-1,3-dihydro-2-benzofuran-5-sulfonamide] |  | 2010 to 8000
CN1CCN(CCCS(=O)(=O)Nc2ccccc2N2CCN(C(=O)C(C)(C)C)CC2)CC1 [Compound A-417, N-{2-[4-(2,2-dimethylpropanoyl)piperazin-1-yl]phenyl}-3-(4-methylpiperazin-1-yl)propane-1-sulfonamide] |  | 2010 to 8000
CN(C)S(=O)(=O)c1ccc(S(=O)(=O)Nc2ccccc2N2CCN(CC(C)(F)F)CC2)cc1 [Compound A-525, N4-{2-[4-(2,2-difluoropropyl)piperazin-1-yl]phenyl}-N1,N1-dimethylbenzene-1,4-disulfonamide] |  | ≤ 2000
CP(C)(=O)c1ccc(S(=O)(=O)Nc2ccccc2N2CCN(c3ccc(F)cc3F)CC2)cc1 [Compound A-165, N-{2-[4-(2,4-difluorophenyl)piperazin-1-yl]phenyl}-4-(dimethylphosphoryl)benzene-1-sulfonamide] |  | 2010 to 8000
COCCOCCOCCOc1ccc(S(=O)(=O)Nc2ccccc2N2CCC(c3ccc(Cl)cc3F)CC2)cc1 [Compound A-588, N-{2-[4-(4-chloro-2-fluorophenyl)piperidin-1-yl]phenyl}-4-{2-[2-(2-methoxyethoxy)ethoxy]ethoxy}benzene-1-sulfonamide] |  | ≤ 2000
CC(c1cccc(C#N)c1N1CCC(CN2C[C@@H](C)O[C@@H](C)C2)CC1)S(=O)(=O)c1ccc(S(=O)(=O)N(C)C)cc1 (single isomer, unassigned) [Compound A-854, 4-((1-(3-cyano-2-(4-((2,6-dimethylmorpholino)methyl)piperidin-1-yl)phenyl)ethyl)sulfonyl)-N,N-dimethylbenzenesulfonamide] | ≤ 2000 | 
Cc1ccc(S(=O)(=O)c2ccccc2N2CCC(c3ccc(Cl)cc3F)CC2)cc1 [Compound A-133] |  | ≥ 10000
CC1(C)CC2(CCN(c3ccccc3NS(=O)(=O)c3cccc(C4OCCO4)c3)CC2)CO1 [Compound A-670, N-(2-{3,3-dimethyl-2-oxa-8-azaspiro[4.5]decan-8-yl}phenyl)-3-(1,3-dioxolan-2-yl)benzene-1-sulfonamide] |  | 2010 to 8000
CC(c1cccnc1N1CCC2(CC1)COC(C)(C)C2)S(=O)(=O)c1ccc(S(=O)(=O)N(C)C)cc1 (stereo not shown) [Compound A-775, 4-[1-(2-{3,3-dimethyl-2-oxa-8-azaspiro[4.5]decan-8-yl}pyridin-3-yl)ethanesulfonyl]-N,N-dimethylbenzene-1-sulfonamide] |  | 8010 to 9990
O=S(=O)(Nc1ccccc1N1CCC(c2ccc(Cl)cc2F)CC1)c1cccc(F)c1F [Compound A-97, N-{2-[4-(4-chloro-2-fluorophenyl)piperidin-1-yl]phenyl}-2,3-difluorobenzene-1-sulfonamide] |  | ≥ 10000
CN(C)S(=O)(=O)c1ccc(S(=O)(=O)Nc2ccccc2N2CCN(CC(F)(F)C(F)F)CC2)cc1 [Compound A-551, N1,N1-dimethyl-N4-{2-[4-(2,2,3,3-tetrafluoropropyl)piperazin-1-yl]phenyl}benzene-1,4-disulfonamide] |  | ≤ 2000
CC(c1cccc(F)c1N1CCC(C)(C(F)F)CC1)S(=O)(=O)c1ccc(S(=N)(=O)N(C)C)cc1 (single isomer, unassigned) [Compound A-974, 4-((1-(2-(4-(difluoromethyl)-4-methylpiperidin-1-yl)-3-fluorophenyl)ethyl)sulfonyl)-N,N-dimethylbenzenesulfonimidamide] | ≤ 2000 | 
CC(c1cccc(F)c1N1CCOCC1)S(=O)(=O)c1ccc2c(c1)CCS2(=O)=O (single isomer, unassigned) [Compound A-966, 5-((1-(3-fluoro-2-morpholinophenyl)ethyl)sulfonyl)-2,3-dihydrobenzo[b]thiophene 1,1-dioxide] |  | ≥ 10000
Cc1ccc(N2CCOCC2)c(NS(=O)(=O)c2ccc(S(=O)(=O)N(C)C)cc2)c1 [Compound A-757, N1,N1-dimethyl-N4-[5-methyl-2-(morpholin-4-yl)phenyl]benzene-1,4-disulfonamide] |  | ≤ 2000

SMILES | AC50 [nM] | AC50 (Homo sapiens, HeLa, 2 h) [nM]
CC(C)(C)C(=O)N1CCN(c2ccccc2NS(=O)(=O)c2ccc(S(C)(=O)=O)cc2)CC1 [Compound A-324, N-{2-[4-(2,2-dimethylpropanoyl)piperazin-1-yl]phenyl}-4-methanesulfonylbenzene-1-sulfonamide] |  | ≥ 10000
CC1(C)CC2(CCN(c3ccccc3NS(=O)(=O)c3ccc4c(c3)COC4)CC2)CO1 [Compound A-714, N-(2-{3,3-dimethyl-2-oxa-8-azaspiro[4.5]decan-8-yl}phenyl)-1,3-dihydro-2-benzofuran-5-sulfonamide] |  | 8010 to 9990
Cn1nccc1S(=O)(=O)Nc1cccc(Cl)c1N1CCOCC1 [Compound A-329, N-[3-chloro-2-(morpholin-4-yl)phenyl]-1-methyl-1H-pyrazole-5-sulfonamide] |  | ≥ 10000
CN(C)S(=O)(=O)c1ccc(NC(c2ccccc2N2CCC(c3ccc(Cl)cc3F)CC2)C(F)(F)F)cc1 (stereo not shown) [Compound A-241, 4-((1-(2-(4-(4-chloro-2-fluorophenyl)piperidin-1-yl)phenyl)-2,2,2-trifluoroethyl)amino)-N,N-dimethylbenzenesulfonamide] |  | ≥ 10000
CC(c1ccccc1N1CCC(c2c(F)cccc2F)CC1)S(=O)(=O)c1ccc(S(=O)(=O)N(C)C)cc1 (stereo not shown) [Compound A-254, 4-((1-(2-(4-(2,6-difluorophenyl)piperidin-1-yl)phenyl)ethyl)sulfonyl)-N,N-dimethylbenzenesulfonamide] |  | ≤ 2000
C[C@H]1COC[C@H](C)N1CC1CCN(c2c(F)cccc2NS(=O)(=O)c2ccc(S(=O)(=O)N(C)C)cc2)CC1 (racemic) [Compound A-763, N4-(2-{4-[(3,5-dimethylmorpholin-4-yl)methyl]piperidin-1-yl}-3-fluorophenyl)-N1,N1-dimethylbenzene-1,4-disulfonamide] |  | ≤ 2000
CC1(C)CC2(CCN(c3ccccc3NS(=O)(=O)c3cccc(C4CC4(F)F)c3)CC2)CO1 (stereo not shown) [Compound A-687, 3-(2,2-difluorocyclopropyl)-N-(2-{3,3-dimethyl-2-oxa-8-azaspiro[4.5]decan-8-yl}phenyl)benzene-1-sulfonamide] |  | ≤ 2000
Cc1nc(C)c(S(=O)(=O)Nc2ccccc2N2CCN(c3ccc(Cl)cc3F)CC2)s1 [Compound A-7, N-{2-[4-(4-chloro-2-fluorophenyl)piperazin-1-yl]phenyl}-2,4-dimethyl-1,3-thiazole-5-sulfonamide] |  | ≤ 2000
CC(C1CCN(c2c(F)cccc2NS(=O)(=O)c2ccc(S(=N)(=O)N(C)C)cc2)CC1)N1C[C@@H](C)O[C@@H](C)C1 (single isomer, unassigned) [Compound A-871B] | ≤ 2000 | 
CCOC(=O)c1ccc(S(=O)(=O)Nc2ccccc2N2CCC(c3ccc(Cl)cc3F)CC2)cc1 [Compound A-41, ethyl 4-({2-[4-(4-chloro-2-fluorophenyl)piperidin-1-yl]phenyl}sulfamoyl)benzoate] |  | ≥ 10000
CN(C)S(=O)(=O)c1ccc(S(=O)(=O)Nc2ccccc2N2CC3CCC2CN3c2ccc(Cl)cc2F)cc1 (stereo not shown) [Compound A-26, N4-{2-[5-(4-chloro-2-fluorophenyl)-2,5-diazabicyclo[2.2.2]octan-2-yl]phenyl}-N1,N1-dimethylbenzene-1,4-disulfonamide] |  | ≤ 2000
COc1ccc(S(=O)(=O)Nc2ccccc2N2CCC(c3ccc(F)cc3F)CC2)nc1 [Compound A-118, N-{2-[4-(2,4-difluorophenyl)piperidin-1-yl]phenyl}-5-methoxypyridine-2-sulfonamide] |  | 2010 to 8000
CN(C)S(=O)(=O)c1ccc(S(=O)(=O)Nc2ccccc2N2CCN(C(=O)C3(C)CCCCO3)CC2)cc1 (stereo not shown) [Compound A-448, N1,N1-dimethyl-N4-{2-[4-(2-methyloxane-2-carbonyl)piperazin-1-yl]phenyl}benzene-1,4-disulfonamide] |  | ≤ 2000
CS(=O)(=O)c1ccc(S(=O)(=O)Nc2ccccc2N2CCC3(CC2)OCCc2ccccc23)cc1 [Compound A-402, N-(2-{3,4-dihydrospiro[2-benzopyran-1,4′-piperidin]-1′-yl}phenyl)-4-methanesulfonylbenzene-1-sulfonamide] |  | 2010 to 8000
O=S(=O)(Nc1ccccc1N1CCOCC1)c1ccc2c(c1)CCC2 [Compound A-760, N-[2-(morpholin-4-yl)phenyl]-2,3-dihydro-1H-indene-5-sulfonamide] |  | 2010 to 8000
CN(C)CC1(c2ccc(F)cc2F)CCN(c2ccccc2NS(=O)(=O)c2ccc(S(=O)(=O)N(C)C)cc2)CC1 [Compound A-221, N4-{2-[4-(2,4-difluorophenyl)-4-[(dimethylamino)methyl]piperidin-1-yl]phenyl}-N1,N1-dimethylbenzene-1,4-disulfonamide] |  | ≤ 2000
Cc1ccc(N2CCOCC2)c(NS(=O)(=O)Cc2ccc3c(c2)COCC3)c1 [Compound A-629, 1-(3,4-dihydro-1H-2-benzopyran-7-yl)-N-[5-methyl-2-(morpholin-4-yl)phenyl]methanesulfonamide] |  | 2010 to 8000
